Experimental data as given in patent US9347057B2, “Methods for efficient, expansive user-defined DNA mutagenesis” (THE JOHNS HOPKINS UNIVERSITY, priority 2012, dated 2016).

Columns and labels:
Type in all cases: cell-based, E. coli
Details in all cases: Escherichia coli
[1] = test system: TEM-1 Y105D allele; assay: MIC assay on agar plates, TEM-1 allele Y105D
Description: (§1) Selected single base mutations were re-introduced into TEM-1 by site-directed PFunkel mutagenesis on the 20 μL volume scale. The MIC for ampicillin and piperacillin of the mutants was assessed with and without 6 μg/mL tazobactam by spotting 10^4 CFU on Mueller-Hinton agar plates containing 50 μg/mL Spec, 300 μM IPTG, and √2-fold increments of either ampicillin or piperacillin. Plates were incubated at 37° C. for 12 hrs.

[2] = test system: wildtype TEM-1 (allele: none); assay: MIC assay on agar plates, cells with TEM-1 (no mutation)
Description: as §1

[3] = test system: TEM-1 M69L allele; assay: MIC assay on agar plates, TEM-1 allele M69L
Description: as §1

[4] = test system: TEM-1 N276D allele; assay: MIC assay on agar plates, TEM-1 allele N276D
Description: as §1

[5] = test system: TEM-1 S235T allele; assay: MIC assay on agar plates, TEM-1 allele S235T
Description: as §1

[6] = test system: TEM-1 Y105N allele; assay: MIC assay on agar plates, TEM-1 allele Y105N
Description: as §1

[7] = test system: TEM-1 R244S allele; assay: MIC assay on agar plates, TEM-1 allele R244S
Description: as §1

[8] = test system: TEM-1 Y105S allele; assay: MIC assay on agar plates, TEM-1 allele Y105S
Description: as §1

[9] = + tazobactam 6 μg/mL, median of three replicates
[10] = + tazobactam 6 μg/mL, replicate 1
[11] = + tazobactam 6 μg/mL, replicate 2
[12] = + tazobactam 6 μg/mL, replicate 3
[13] = − tazobactam, median of three replicates

Work on `CC1(C)S[C@@H]2[C@H](NC(=O)[C@H](N)c3ccccc3)C(=O)N2[C@H]1C(=O)O` [ampicillin] yielded an MIC [1, 9] of 256 mg/L, an MIC [1, 10] of 256 mg/L and an MIC [1, 11] of 256 mg/L. For the same molecule, the MIC [1, 12] was 362 mg/L, the MIC [1, 13] was 1450 mg/L and the MIC ([1]; − tazobactam, replicate 1) was 1450 mg/L. It also gave an MIC ([1]; − tazobactam, replicate 2) of 1450 mg/L, an MIC ([1]; − tazobactam, replicate 3) of 1450 mg/L and an MIC [2, 9] of 22.6 mg/L. The MIC [2, 10] was 16 mg/L, the MIC [2, 11] was 22.6 mg/L and the MIC [2, 12] was 22.6 mg/L. The MIC [2, 13] was 8190 mg/L, the MIC ([2]; − tazobactam, replicate 1) was 8190 mg/L and the MIC ([2]; − tazobactam, replicate 2) was 8190 mg/L. It also gave an MIC ([2]; − tazobactam, replicate 3) of 8190 mg/L, an MIC [3, 9] of 724 mg/L and an MIC [3, 10] of 512 mg/L. For the same molecule, the MIC [3, 11] was 724 mg/L, the MIC [3, 12] was 724 mg/L and the MIC [3, 13] was 8190 mg/L. The MIC ([3]; − tazobactam, replicate 1) was 5790 mg/L, the MIC ([3]; − tazobactam, replicate 2) was 8190 mg/L and the MIC ([3]; − tazobactam, replicate 3) was 8190 mg/L. For the same molecule, the MIC [4, 9] was 90.5 mg/L, the MIC [4, 10] was 90.5 mg/L and the MIC [4, 11] was 90.5 mg/L. For the same molecule, the MIC [4, 12] was 128 mg/L, the MIC [4, 13] was 8190 mg/L and the MIC ([4]; − tazobactam, replicate 1) was 8190 mg/L. For the same molecule, the MIC ([4]; − tazobactam, replicate 2) was 8190 mg/L, the MIC ([4]; − tazobactam, replicate 3) was 8190 mg/L and the MIC [5, 9] was 362 mg/L. It also gave an MIC [5, 10] of 256 mg/L, an MIC [5, 11] of 362 mg/L and an MIC [5, 12] of 512 mg/L. For the same molecule, the MIC [5, 13] was 8190 mg/L, the MIC ([5]; − tazobactam, replicate 1) was 8190 mg/L and the MIC ([5]; − tazobactam, replicate 2) was 8190 mg/L. It also gave an MIC ([5]; − tazobactam, replicate 3) of 8190 mg/L, an MIC [6, 9] of 1450 mg/L and an MIC [6, 10] of 148 mg/L. The MIC [6, 11] was 1450 mg/L, the MIC [6, 12] was 1450 mg/L and the MIC [6, 13] was 5790 mg/L. It also gave an MIC ([6]; − tazobactam, replicate 1) of 4100 mg/L, an MIC ([6]; − tazobactam, replicate 2) of 5790 mg/L and an MIC ([6]; − tazobactam, replicate 3) of 5790 mg/L. The MIC [7, 9] was 90.5 mg/L, the MIC [7, 10] was 64 mg/L and the MIC [7, 11] was 128 mg/L. The MIC [7, 12] was 90.5 mg/L, the MIC [7, 13] was 4100 mg/L and the MIC ([7]; − tazobactam, replicate 1) was 2900 mg/L. It also gave an MIC ([7]; − tazobactam, replicate 2) of 4100 mg/L, an MIC ([7]; − tazobactam, replicate 3) of 4100 mg/L and an MIC [8, 9] of 1020 mg/L. It also gave an MIC [8, 10] of 724 mg/L, an MIC [8, 11] of 1020 mg/L and an MIC [8, 12] of 1020 mg/L. It also gave an MIC [8, 13] of 2900 mg/L, an MIC ([8]; − tazobactam, replicate 1) of 2900 mg/L and an MIC ([8]; − tazobactam, replicate 2) of 2900 mg/L. It also gave an MIC ([8]; − tazobactam, replicate 3) of 2900 mg/L.

`CCN1CCN(C(=O)N[C@@H](C(=O)N[C@@H]2C(=O)N3[C@@H]2SC(C)(C)[C@@H]3C(=O)O)c2ccccc2)C(=O)C1=O` [piperacillin] gave an MIC [1, 9] of 1 mg/L, an MIC [1, 10] of 1 mg/L and an MIC [1, 11] of 1 mg/L. For the same molecule, the MIC [1, 12] was 1 mg/L, the MIC [1, 13] was 1.4 mg/L and the MIC ([1]; − tazobactam, replicate 1) was 1.4 mg/L. It also gave an MIC ([1]; − tazobactam, replicate 2) of 1.4 mg/L, an MIC ([1]; − tazobactam, replicate 3) of 1.4 mg/L and an MIC [2, 9] of 1.4 mg/L. For the same molecule, the MIC [2, 10] was 1 mg/L, the MIC [2, 11] was 1.4 mg/L and the MIC [2, 12] was 1.4 mg/L. It also gave an MIC [2, 13] of 2900 mg/L, an MIC ([2]; − tazobactam, replicate 1) of 2900 mg/L and an MIC ([2]; − tazobactam, replicate 2) of 2900 mg/L. It also gave an MIC ([2]; − tazobactam, replicate 3) of 2900 mg/L, an MIC [3, 9] of 22.6 mg/L and an MIC [3, 10] of 22.6 mg/L. For the same molecule, the MIC [3, 11] was 32 mg/L, the MIC [3, 12] was 22.6 mg/L and the MIC [3, 13] was 2900 mg/L. For the same molecule, the MIC ([3]; − tazobactam, replicate 1) was 2050 mg/L, the MIC ([3]; − tazobactam, replicate 2) was 2900 mg/L and the MIC ([3]; − tazobactam, replicate 3) was 2900 mg/L. For the same molecule, the MIC [4, 9] was 1.4 mg/L, the MIC [4, 10] was 1 mg/L and the MIC [4, 11] was 1.4 mg/L. For the same molecule, the MIC [4, 12] was 2 mg/L, the MIC [4, 13] was 2900 mg/L and the MIC ([4]; − tazobactam, replicate 1) was 2900 mg/L. It also gave an MIC ([4]; − tazobactam, replicate 2) of 2900 mg/L, an MIC ([4]; − tazobactam, replicate 3) of 2900 mg/L and an MIC [5, 9] of 22.6 mg/L. For the same molecule, the MIC [5, 10] was 32 mg/L, the MIC [5, 11] was 16 mg/L and the MIC [5, 12] was 22.6 mg/L. For the same molecule, the MIC [5, 13] was 2900 mg/L, the MIC ([5]; − tazobactam, replicate 1) was 2900 mg/L and the MIC ([5]; − tazobactam, replicate 2) was 2900 mg/L. It also gave an MIC ([5]; − tazobactam, replicate 3) of 2900 mg/L, an MIC [6, 9] of 45 mg/L and an MIC [6, 10] of 32 mg/L. The MIC [6, 11] was 45 mg/L, the MIC [6, 12] was 45 mg/L and the MIC [6, 13] was 2050 mg/L. For the same molecule, the MIC ([6]; − tazobactam, replicate 1) was 2050 mg/L, the MIC ([6]; − tazobactam, replicate 2) was 2050 mg/L and the MIC ([6]; − tazobactam, replicate 3) was 2050 mg/L. For the same molecule, the MIC [7, 9] was 2 mg/L, the MIC [7, 10] was 2 mg/L and the MIC [7, 11] was 2.83 mg/L. The MIC [7, 12] was 2 mg/L, the MIC [7, 13] was 1450 mg/L and the MIC ([7]; − tazobactam, replicate 1) was 1020 mg/L. The MIC ([7]; − tazobactam, replicate 2) was 1450 mg/L, the MIC ([7]; − tazobactam, replicate 3) was 1450 mg/L and the MIC [8, 9] was 16 mg/L. The MIC [8, 10] was 16 mg/L, the MIC [8, 11] was 16 mg/L and the MIC [8, 12] was 16 mg/L. It also gave an MIC [8, 13] of 1450 mg/L, an MIC ([8]; − tazobactam, replicate 1) of 1020 mg/L and an MIC ([8]; − tazobactam, replicate 2) of 1450 mg/L. The MIC ([8]; − tazobactam, replicate 3) was 1450 mg/L.
